Laboratory results from patent US7465719B2, “Carbamic acid compounds comprising an ester or ketone linkage as HDAC inhibitors” (Topotarget UK Limited, priority 2003, dated 2008).
pIC50: −log10 of the molar value. Where two headings read alike, the source gives them in different places. Blank lines part the entries; values can stand above or below the compound they belong to.

What was measured:
[1] = system: K11 (HPV E7 transformed human keratinocyte line); assay: Secondary assay: cell proliferation WST-1, K11; type: cell-based; settings: read-out: Cell Proliferation Inhibition WST-1 (IC50 unless otherwise specified) K11
Method: (§1) Compounds with HDAC inhibition activity, as determined using the primary assay, were subsequently evaluated using secondary cell-based assays. […] Assay Method
(§2) Cells were plated in 96-well plates at 3-10×10^3 cells/well in 100 μL of culture medium. The following day, different concentrations of candidate compounds were added and the cells incubated at 37° C. for 48 hours. Subsequently, 10 μL/well of WST-1 reagent was added and the cells reincubated for 1 hour. After the incubation time, absorbance was measured.
(§3) WST-1 is a tetrazolium salt which is cleaved to formazan dye by cellular enzymes. An expansion in the number of viable cells results in an increase in the overall activity of mitochondrial dehydrogenases in the sample. This augmentation in the enzyme activity leads to an increase in the amount of formazan dye formed, which directly correlates to the number of metabolically active cells in the culture. The formazan dye produced is quantified by a scanning multiwell spectrophotometer by measuring the absorbance of the dye solution at 450 nm wavelength (reference wavelength 690 nm).
(§4) IC50 values were calculated using the software package Prism 3.0 (GraphPad Software Inc., San Diego, Calif.), setting top value at 100 and bottom value at 0.

[2] = system: NHEK-Ad (primary human adult keratinocyte line); assay: Secondary assay: cell proliferation WST-1, NHEK-Ad; type: cell-based; settings: read-out: Cell Proliferation Inhibition WST-1 (IC50 unless otherwise specified) NHEK-AD
Method: as §1, §2, §3, §4

[3] = system: JURKAT (human T-cell line); assay: Secondary assay: cell proliferation WST-1, Jurkat; type: cell-based; settings: Jurkat cells, 48 hours, read-out: Cell Proliferation Inhibition WST-1 (IC50 unless otherwise specified) Jurkat
Method: as §1, §2, §3
Percent activity (% activity) in reducing the number of viable cells was calculated for each test compound as: % activity={(S^C−B)/(S^o−B)}×100 wherein S^C denotes signal measured in the presence of the compound being tested, S^o denotes signal measured in the absence of the compound being tested, and B denotes the background signal measured in blank wells containing medium only. […] IC50 values were calculated using the software package Prism 3.0 (GraphPad Software Inc., San Diego, Calif.), setting top value at 100 and bottom value at 0.

HDAC (HeLa cell extract) = assay: Primary assay: deacetylase activity, HeLa cell extract as source of HDAC; type: biochemical, human; settings: read-out: HDAC Inhibition (IC50 unless otherwise specified) HeLa
Method: Decreased activity indicates increased inhibition by the test compound.
Alternatively, the activity of the compounds as HDAC inhibitors was determined using a commercially available fluorescent assay kit: (Fluor de Lys™, BioMol Research Labs, Inc., Plymouth Meeting, USA).
Extensive comparative studies have shown that Primary Assay (1) and Primary Assay (2), discussed above, yield equivalent results. Primary Assay results reported herein are (a) exclusively from (1); (b) exclusively from (2); or (c) from both (1) and (2).
The HeLa cell extract was made from HeLa cells (ATCC Ref. No. CCL-2) by freeze-thawing three times in 60 mM Tris Cl pH 8.0, 450 mM NaCl, 30% glycerol. Two cell volumes of extraction buffer were used, and particulate material was centrifuged out (20800 g, 4° C., 10 minutes). The supernatant extract having deacetylase activity was aliquotted and frozen for storage.

HeLa cells = assay: Secondary assay: cell proliferation WST-1, HeLa; type: cell-based; settings: Homo sapiens, read-out: Cell Proliferation Inhibition WST-1 (IC50 unless otherwise specified) HeLa
Source text: Compounds with HDAC inhibition activity, as determined using the primary assay, were subsequently evaluated using secondary cell-based assays. The following cell lines were used: • HeLa—Human cervical adenocarcinoma cell line (ATCC ref. No. CCL-2). • K11—HPV E7 transformed human keratinocyte line provided by Pidder Jansen-Duerr, Institut für Biomedizinische Alternsforschung, Innsbruck, Austria. • NHEK-Ad—Primary human adult keratinocyte line (Cambrex Corp., East Rutherford, N.J., USA). • JURKAT—Human T-cell line (ATCC no. TIB-152). Assay Method
Cells were cultured, exposed to candidate compounds, and incubated for a time, and the number of viable cells was then assessed using the Cell Proliferation Reagent WST-1 from Boehringer Mannheim (Cat. No. […]), described below.
as §2, §3, §4

[4] = Homo sapiens, Keratinocyte, K11 cells, 48 hours
[5] = Homo sapiens, Keratinocyte, 48 h

Compound: Nc1ccccc1NC(=O)c1ccc(CNC(=O)OCc2cccnc2)cc1 [MS-275, reference compound]
- pIC50 ([1]; K11 cells, 48 hours): 5.04
- pIC50 ([2]; NHEK-AD cells, 48 hours): 5.51
- pIC50 [3]: 6.44

Compound: COc1ccc(C2(C(=O)Oc3ccc(C(=O)NO)cc3)CCCCC2)cc1 [PX118478, 4-[(Hydroxyamino)carbonyl]phenyl 1-(4-methoxyphenyl)-cyclohexanecarboxylate]
- pIC50 (HDAC (HeLa cell extract)): 7.64
- pIC50 (HeLa cells; HeLa cells, 48 hours): 5.34
- pIC50 [1, 4]: 4.87
- pIC50 ([3]; Homo sapiens): 6.30
- melting point: 127 to 129 °C

Compound: O=C(NO)c1ccc(OC(=O)C2(c3ccccc3)CCCCC2)cc1 [PX118479, 4-[(Hydroxyamino)carbonyl]phenyl 1-phenylcyclohexanecarboxylate]
- pIC50 (HDAC (HeLa cell extract)): 7.28
- pIC50 (HeLa cells; HeLa cells, 48 hours): 4.86
- pIC50 [1, 4]: 4.67
- pIC50 ([3]; Homo sapiens): 5.90
- melting point: 142 to 144 °C

Compound: COC(=O)c1ccc(C2(C(=O)Oc3ccc(C(=O)NO)cc3)CCCCC2)cc1 [PX118480, Methyl 4-[1-({4-[(hydroxyamino)carbonyl]phenoxy}carbonyl) -cyclohexyl]benzoate]
- pIC50 (HDAC (HeLa cell extract)): 7.60
- pIC50 (HeLa cells; HeLa cells, 48 hours): 5.10
- pIC50 [1, 4]: 5.78
- pIC50 ([3]; Homo sapiens): 6.11
- melting point: 129 to 131 °C

Compound: CC(C)(C)OC(=O)c1ccc(C2(C(=O)Oc3ccc(C(=O)NO)cc3)CCCCC2)cc1 [PX118926, tert-Butyl 4-[1-({4-[(hydroxyamino)carbonyl]phenoxy}-carbonyl)cyclohexyl]benzoate]
- melting point: 143 to 147 °C (dec.)

Compound: CC(=O)Oc1ccc(C2(C(=O)Oc3ccc(C(=O)NO)cc3)CCCCC2)cc1 [PX118959, 4-[(Hydroxyamino)carbonyl]phenyl 1-[4-(acetyloxy)phenyl]-cyclohexanecarboxylate]
- melting point: 69 °C

Compound: COc1ccc(C2(C(=O)Oc3ccc(C(=O)NO)cc3)CCCC2)cc1 [PX119063, 4-[(Hydroxyamino)carbonyl]phenyl 1-(4-methoxyphenyl) -cyclopentanecarboxylate]
- pIC50 (HDAC (HeLa cell extract)): 7.07
- pIC50 (HeLa cells; HeLa cells, 48 hours): 5.31
- melting point: 143 to 144 °C

Compound: O=C(NO)c1ccc(OC(=O)C2(c3ccc(OC(=O)c4ccccc4)cc3)CCCCC2)cc1 [PX119085, 4-[1-({4-[(Hydroxyamino)carbonyl]phenoxy}carbonyl)cyclohexyl]-phenyl benzoate]
- melting point: 114 to 115 °C

Compound: CC(C)(C)C(=O)Oc1ccc(C2(C(=O)Oc3ccc(C(=O)NO)cc3)CCCCC2)cc1 [PX119086, 4-[(Hydroxyamino)carbonyl]phenyl 1-{4-[(2,2-dimethylpropanoyl)oxy]-phenyl}-cyclohexane-carboxylate]
- melting point: 124 to 125 °C

Compound: CC(/C=C/C(=O)NO)=C\[C@@H](C)C(=O)c1ccc(N(C)C)cc1 [TSA, Trichostatin A, reference compound]
- pIC50 (HeLa cells; HeLa, 48 h): 6.46
- pIC50 [1, 5]: 6.42
- pIC50 [2, 5]: 6.70
- pIC50 ([3]; Homo sapiens): 7.38

Compound: oxamflatin [reference compound]
- pIC50 [3]: 6.77

Results, then the compound that gave them:

- melting point: 140 to 143 °C
Compound: CCOc1ccc(C2(C(=O)Oc3ccc(C(=O)NO)cc3)CCCCC2)cc1 [PX118925, 4-[(Hydroxyamino)carbonyl]phenyl 1-(4-ethoxyphenyl) -cyclohexanecarboxylate]

- melting point: 59 to 60 °C
Compound: Cc1ccc(C2(C(=O)Oc3ccc(C(=O)NO)cc3)CCCCC2)cc1 [PX118966, 4-[(Hydroxyamino)carbonyl]phenyl 1-(4-methylphenyl) -cyclohexanecarboxylate]

- melting point: 145 to 146 °C
Compound: O=C(NO)c1ccc(OC(=O)C2(c3ccc(Cl)cc3)CCCCC2)cc1 [PX119059, 4-[(Hydroxyamino)carbonyl]phenyl 1-(4-chlorophenyl) -cyclohexanecarboxylate]

- melting point: 150 to 151 °C
Compound: O=C(NO)c1ccc(OC(=O)C2(c3cccc(F)c3)CCCCC2)cc1 [PX119061, 4-[(Hydroxyamino)carbonyl]phenyl 1-(3-fluorophenyl) -cyclohexanecarboxylate]

- melting point: 125 to 126 °C
Compound: O=C(NO)c1ccc(OC(=O)C2(c3ccccc3F)CCCCC2)cc1 [PX119062, 4-[(Hydroxyamino)carbonyl]phenyl 1-(2-fluorophenyl) -cyclohexanecarboxylate]

- melting point: 164 to 165 °C
Compound: O=C(NO)c1ccc(OC(=O)C2(c3ccc(F)cc3Cl)CCCCC2)cc1 [PX119064, 4-[(Hydroxyamino)carbonyl]phenyl 1-(2-chloro-4-fluorophenyl) -cyclohexanecarboxylate]

- melting point: 150 to 151 °C
Compound: O=C(NO)c1ccc(OC(=O)C2(c3ccc(F)cc3)CCCCC2)cc1 [PX119065, 4-[(Hydroxyamino)carbonyl]phenyl 1-(4-fluorophenyl) -cyclohexanecarboxylate]

- melting point: 101 to 102 °C
Compound: O=C(NO)c1ccc(OC(=O)C2(c3c(F)cccc3Cl)CCCCC2)cc1 [PX119101, 4-[(Hydroxyamino)carbonyl]phenyl 1-(2-chloro-6-fluorophenyl) -cyclohexanecarboxylate]

- melting point: 169 to 170 °C
Compound: O=C(O)c1ccc(C2(C(=O)Oc3ccc(C(=O)NO)cc3)CCCCC2)cc1 [PX119102, 4-[1-({4-[(Hydroxyamino)carbonyl]phenoxy}carbonyl)cyclohexyl]-benzoic acid]

- melting point: 93 to 94 °C
Compound: O=C(NO)c1ccc(OC(=O)C2(c3ccc(O)cc3)CCCCC2)cc1 [PX119103, 4-[(Hydroxyamino)carbonyl]phenyl 1-(4-hydroxyphenyl) -cyclohexanecarboxylate]
